Patent US20230234917A1, “ASPARAGINE DERIVATIVES AND METHODS OF USING SAME” (priority 2020, published 2023)

What was measured:
[1] = target: T1, ClbP (Escherichia coli, UniProt Q0P7K6); assay: ClbP whole cell activity (inhibition) assay, fluorogenic substrate; assay type: cell-based, E. coli
In short: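 E. coli ClbP+ overnight culture washed and concentrated fivefold in PBS, mixed with inhibitor (0–300 μM, 4% DMSO) and 5 μM fluorogenic substrate at 37 °C. Fluorescence (ex 360/em 460 nm) read every 2 min for 46 min. Rates from 10–30 min normalized to no inhibitor and fit to a three-parameter IC50.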

[2] = target: T1, ClbP; assay: ClbP cell lysate activity (inhibition) assay, fluorogenic substrate; assay type: biochemical; details: ClbP Lysate Inhibition Assay: IC50, E. coli ClbP+ lysozyme-EDTA lysates, 5 μM fluorogenic substrate, inhibitor 0-300 μM, 37° C., singlicate
In short: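 E. coli ClbP+ overnight culture lysed with lysozyme-EDTA (30 min, 37 °C); lysate (fivefold concentrated vs culture) mixed with inhibitor (0–300 μM, 4% DMSO) and 5 μM fluorogenic substrate. Fluorescence (ex 360/em 460 nm) read at 37 °C; 0–20 min rates normalized to no-inhibitor, three-parameter IC50 fit, singlicate.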

[3] = target: Full-length WT ClbP (Escherichia coli, UniProt Q0P7K6); assay: ClbP molecular (purified protein) enzymatic inhibition assay, fluorogenic substrate; assay type: biochemical, E. coli

SMILES | IC50 [1] | IC50 [2] | IC50 [3]
CCCCCCCC(=O)N[C@H](CC(N)=O)C(=O)NCCn1cnnc1 [Compound CCXXXIV] | < 100 µM | > 300 µM | 100 to 300 µM
NC(=O)C[C@@H](NC(=O)CCCC1CCCCCC1)C(=O)NCCc1ccccc1 [Compound CCXXXIX] | < 100 µM | < 100 µM | < 100 µM
CCCCCCCC(=O)N[C@H](CC(N)=O)C(=O)NCCc1ccco1 [Compound CCXXXI] | < 100 µM | < 100 µM | < 100 µM
NC(=O)C[C@@H](NC(=O)/C=C/CC1CCCCCC1)C(=O)NCCc1ccccc1 [Compound CCXXXVIII] | < 100 µM | < 100 µM | < 100 µM
CCCCCCCC(=O)N[C@H](CC(N)=O)C(=O)NCCc1ccc(OC)nc1 [Compound CCXXXVII] | < 100 µM | < 100 µM | < 100 µM
CCCCCCC(F)(F)C(=O)N[C@H](CC(N)=O)C(=O)NCCc1ccc(O)cc1 [Compound CCXXXVI] | > 300 µM | < 100 µM | < 100 µM
CCCCCCCC(=O)N[C@H](CC(N)=O)C(=O)NCCc1ccc(=O)[nH]c1 [Compound CCXXXV] | < 100 µM | > 300 µM | < 100 µM
CCCCCCCC(=O)N[C@H](CC(N)=O)C(=O)NCCc1cccnc1 [Compound CCXXX] | < 100 µM | < 100 µM | < 100 µM
CCCCCCCC(=O)N[C@H](CC(N)=O)C(=O)NCCN1CCNCC1 [Compound CCXX] | < 100 µM | < 100 µM | < 100 µM
CCCCCCCNC(=O)[C@H](CC(N)=O)NC(=O)Oc1ccccc1 [Compound CCX] | > 300 µM | > 300 µM | 100 to 300 µM
CCCCCCCC(=O)N[C@H](CC(N)=O)[C@H](O)CCCc1ccccc1 [Compound CXCII] | > 300 µM | < 100 µM | 100 to 300 µM
CCCCCCCC(=O)N[C@H](CC(N)=O)C(=O)NCCc1ccc(Cl)cc1 [Compound CXCIV] | < 100 µM | < 100 µM | < 100 µM
CCCCCCCC(=O)N[C@H](CC(N)=O)C(=O)NCCc1ccc(OC)cc1 [Compound CXCIX] | < 100 µM | < 100 µM | < 100 µM
CCCCCCCC(=O)N[C@H](CC(N)=O)[C@@H](O)CCCc1ccccc1 [Compound CXCI] | < 100 µM | 100 to 300 µM | 100 to 300 µM
CCCCCCCC(=O)N[C@H](CC(N)=O)C(=O)NCCc1ccc(C(=O)O)cc1 [Compound CXCVIII] | < 100 µM | 100 to 300 µM | < 100 µM
CCCCCCCC(=O)N[C@H](CC(N)=O)C(=O)NCCc1ccc(C(=O)OC)cc1 [Compound CXCVII] | < 100 µM | < 100 µM | < 100 µM
CCCCCCCC(=O)N[C@H](CC(N)=O)C(=O)NCCc1ccc(C)cc1 [Compound CXCVI] | < 100 µM | < 100 µM | < 100 µM
CCCCCCCC(=O)N[C@H](CC(N)=O)C(=O)NCCc1ccc(C(F)(F)F)cc1 [Compound CXCV] | > 300 µM | > 300 µM | 100 to 300 µM
CCCCCCCC(=O)N[C@H](CC(N)=O)C(=O)NCCN1CCN(C)CC1 [Compound CXC] | > 300 µM | > 300 µM | 100 to 300 µM
CCCCCCCC(=O)N[C@H](CC(N)=O)C(=O)NCCc1ccccc1 [Compound III] | < 100 µM | < 100 µM | < 100 µM
CCCCCCCC(=O)N[C@@H](CNCCc1ccccc1)CC(N)=O [Compound IX] | > 300 µM | > 300 µM | 100 to 300 µM
CCCCCCCC(=O)N[C@H](CC(N)=O)C(=O)O[C@@H](C)C(=O)OC [Compound LXXVI] | < 100 µM | < 100 µM | 100 to 300 µM
CCCCCCCC(=O)N[C@](C)(CC(N)=O)C(=O)NCCc1ccccc1 [Compound LXX] | > 300 µM | > 300 µM | 100 to 300 µM
CCCCCCCC(=O)N[C@@H](CNC(C)(C)C)CC(N)=O [Compound VIII] | < 100 µM | < 100 µM | < 100 µM
CCCCCCCC(=O)N[C@H](CC(N)=O)c1nnn(C(C)(C)C)n1 [Compound XIX] | > 300 µM | > 300 µM | 100 to 300 µM
CCCCCCCC(=O)N[C@H](CC(N)=O)c1nnn(CCc2ccccc2)n1 [Compound XVIII] | > 300 µM | > 300 µM | 100 to 300 µM
CCCCCCCC(=O)N[C@H](CC(N)=O)CN(C)CCc1ccccc1 [Compound XVI] | > 300 µM | < 100 µM | < 100 µM
CCCCCCCCCC(=O)N[C@@H]1CC(=O)NC1(O)C(=O)NCc1ccccc1 (stereo partly drawn) [Compound […]] | 100 to 300 µM | 100 to 300 µM | < 100 µM
